For one substance, adrenocorticotropic activity results are on record in patent publication US4130514A, “Synthesis of peptides” (Armour Pharmaceutical Company, priority 1978, dated 1978).

The test in a line: adrenocorticotropic activity of the purified peptides (no method described). As to conditions: peptide purified by carboxymethylcellulose ion-exchange chromatography and Sephadex gel filtration; result in words only. Background: In gel filtration, larger molecules generally elute earlier.

For the substance “[D-ala^1, asn^25 ]-ACTH-(1-25) [[D-ala^1 ,gln^25]-ACTH-(1-25)]”, the adrenocorticotropic activity entry is given as “found to have adrenocorticotropic activity”.
